The source of these data is patent publication US6423689B1, “Peptidyl calcium channel blockers” (Warner-Lambert Company, priority 1997, dated 2002).

Usually IC50 stands for the concentration that gives 50% inhibition. As a reminder, the inhibition is the change of the read-out against control, counted positive when it falls. Usually melting point stands for the temperature of the solid-liquid transition.

In data set [1] the test system is L-type Ca2+ channels in GH3 cells. As to the kind of experiment: Inhibition of L-type calcium flux in GH3 cells (Indo-1 fluorescence). The format is cell-based, rat. Here is the method:
Measurement of L-type Ca^2+ Channel Blocking Potencies of Compounds in GH3 Cells Using the Fluorescent Ca^2+ Indicator Indo-1
The GH3 rat pituitary cell line was obtained from the American Type Culture Collection (Rockville, Md.). Cells were grown in Ham's F-10 medium with 15% horse serum, 2.5% fetal bovine serum (FBS), and […] (Gibco, Gaithersburg, Md.). Confluent cells were detached using 0.5 mM EDTA and loaded with 5 μM Indo-acetoxymethyl ester (Molecular Probes, Eugene, Oreg.) in 1% bovine serum albumin (BSA) containing assay buffer (10 mM HEPES/Tris pH 7.4 in Hank's Balanced Salt Solution without bicarbonate or phenol red) for 60 minutes at 30° C. Loaded cells were washed twice, resuspended (approx. 10^7 cells/mL) in assay buffer containing 0.5% BSA, and kept on ice until use (<3 hrs). Different concentrations of the test compounds (60 μL in dimethyl sulfoxide) or controls were added to 5.94 mL of assay buffer containing approximately 3×10^6 loaded cells, and the samples were incubated for 10 minutes at 30° C. After incubation, samples were aliquoted into 3 cuvettes, and their fluorescence was measured with a Photon Technology International (PTI, South Brunswick, N.J.) Model RF-F3004 spectrofluorometer thermostatted at 30° C. Excitation was set at 350 nm and dual emissions were recorded at 400 and 490 nm. Basal emission signals were acquired for 20 seconds, followed by the depolarization of cells by the addition of 200 μL of a stimulation solution (1 M KCl, 68 mM CaCl2) to the stirred cuvette. Emission signals were acquired for an additional 50 seconds after depolarization. Ratio of emission signals (F400 nm/F490 nm), which is proportional to intracellular Ca^2+ concentration, was plotted against time, and the difference between the emission ratio 50 seconds after stimulation and its basal value (before stimulation) was determined. Values obtained in this way were considered as measures of depolarization-induced Ca-flux through L-type channels and plotted as a function of drug concentration. IC50 values of test compounds were calculated by fitting a four-parameter logistic function to the data using the least squares method.
(Calcium flux is commonly read through the fluorescence of an indicator in the cells.)

Data set [2] concerns the target T1, N-type Ca2+ channels in IMR-32 cells (Homo sapiens, UniProt Q00975).
T1 construct: host or cells: IMR-32 cells, differentiated with dibutyryl cAMP and bromodeoxyuridine
Description: Inhibition of N-type calcium flux in IMR-32 cells (Indo-1 fluorescence, nitrendipine present). The format is cell-based. The settings on record: for inhibition at 1 µM / inhibition at 10 µM: IMR-32; for IC50: IMR-32 cells, 5 μM nitrendipine, K+ depolarization. The essentials: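 Differentiated IMR-32 cells (7–13 days) were loaded with 5 μM Indo-1 AM, preincubated with compound for 10 min at 30° C, and depolarized with KCl/CaCl2 stimulation solution, with 5 μM nitrendipine blocking L-channels. Peak-minus-basal 400/490 nm emission ratio was plotted against drug concentration, and IC50 came from four-parameter logistic fits.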

Data set [3] addresses T2, N-type Ca2+ channels in superior cervical ganglion (SCG) neurons (Rattus norvegicus, UniProt Q02294).
T2 construct: from tissue
As to the kind of experiment: Whole-cell voltage clamp, N-type Ca2+ current in SCG neurons. The format is cell-based. The essentials: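 Whole-cell voltage clamp of acutely trypsin-dissociated rat SCG neurons, with TEA/choline external solution (2 mM Ca2+) and Cs-methanesulfonate pipette solution. Currents evoked by 150 ms steps to +20 mV from −65 to −55 mV holding, every 40 s; compounds applied locally, effect as % inhibition of control amplitude.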

Data set [4] concerns K+ channels in superior cervical ganglion (SCG) neurons. Description: Whole-cell voltage clamp, K+ current in SCG neurons. The following applies: 10 μM. The format is cell-based, rat. The method in brief: (§1)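 Acutely dissociated (trypsin) SCG neurons under whole-cell voltage clamp, external NaCl/KCl/HEPES buffer pH 7.4, K-gluconate/KCl pipette. From holding potential −65 to −55 mV, 35 msec steps every 10 sec to 0 mV (peak Na+ current) or +50 mV (sustained K+ current); compounds perfused locally to steady-state block, reported as percent inhibition of control.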

The test system of data set [5] is Na+ channels in superior cervical ganglion (SCG) neurons. Description: Whole-cell voltage clamp, Na+ current in SCG neurons. The format is cell-based, rat. The settings on record: 10 μM. The method in brief: as §1

T1 sequence (Q00975 whole entry): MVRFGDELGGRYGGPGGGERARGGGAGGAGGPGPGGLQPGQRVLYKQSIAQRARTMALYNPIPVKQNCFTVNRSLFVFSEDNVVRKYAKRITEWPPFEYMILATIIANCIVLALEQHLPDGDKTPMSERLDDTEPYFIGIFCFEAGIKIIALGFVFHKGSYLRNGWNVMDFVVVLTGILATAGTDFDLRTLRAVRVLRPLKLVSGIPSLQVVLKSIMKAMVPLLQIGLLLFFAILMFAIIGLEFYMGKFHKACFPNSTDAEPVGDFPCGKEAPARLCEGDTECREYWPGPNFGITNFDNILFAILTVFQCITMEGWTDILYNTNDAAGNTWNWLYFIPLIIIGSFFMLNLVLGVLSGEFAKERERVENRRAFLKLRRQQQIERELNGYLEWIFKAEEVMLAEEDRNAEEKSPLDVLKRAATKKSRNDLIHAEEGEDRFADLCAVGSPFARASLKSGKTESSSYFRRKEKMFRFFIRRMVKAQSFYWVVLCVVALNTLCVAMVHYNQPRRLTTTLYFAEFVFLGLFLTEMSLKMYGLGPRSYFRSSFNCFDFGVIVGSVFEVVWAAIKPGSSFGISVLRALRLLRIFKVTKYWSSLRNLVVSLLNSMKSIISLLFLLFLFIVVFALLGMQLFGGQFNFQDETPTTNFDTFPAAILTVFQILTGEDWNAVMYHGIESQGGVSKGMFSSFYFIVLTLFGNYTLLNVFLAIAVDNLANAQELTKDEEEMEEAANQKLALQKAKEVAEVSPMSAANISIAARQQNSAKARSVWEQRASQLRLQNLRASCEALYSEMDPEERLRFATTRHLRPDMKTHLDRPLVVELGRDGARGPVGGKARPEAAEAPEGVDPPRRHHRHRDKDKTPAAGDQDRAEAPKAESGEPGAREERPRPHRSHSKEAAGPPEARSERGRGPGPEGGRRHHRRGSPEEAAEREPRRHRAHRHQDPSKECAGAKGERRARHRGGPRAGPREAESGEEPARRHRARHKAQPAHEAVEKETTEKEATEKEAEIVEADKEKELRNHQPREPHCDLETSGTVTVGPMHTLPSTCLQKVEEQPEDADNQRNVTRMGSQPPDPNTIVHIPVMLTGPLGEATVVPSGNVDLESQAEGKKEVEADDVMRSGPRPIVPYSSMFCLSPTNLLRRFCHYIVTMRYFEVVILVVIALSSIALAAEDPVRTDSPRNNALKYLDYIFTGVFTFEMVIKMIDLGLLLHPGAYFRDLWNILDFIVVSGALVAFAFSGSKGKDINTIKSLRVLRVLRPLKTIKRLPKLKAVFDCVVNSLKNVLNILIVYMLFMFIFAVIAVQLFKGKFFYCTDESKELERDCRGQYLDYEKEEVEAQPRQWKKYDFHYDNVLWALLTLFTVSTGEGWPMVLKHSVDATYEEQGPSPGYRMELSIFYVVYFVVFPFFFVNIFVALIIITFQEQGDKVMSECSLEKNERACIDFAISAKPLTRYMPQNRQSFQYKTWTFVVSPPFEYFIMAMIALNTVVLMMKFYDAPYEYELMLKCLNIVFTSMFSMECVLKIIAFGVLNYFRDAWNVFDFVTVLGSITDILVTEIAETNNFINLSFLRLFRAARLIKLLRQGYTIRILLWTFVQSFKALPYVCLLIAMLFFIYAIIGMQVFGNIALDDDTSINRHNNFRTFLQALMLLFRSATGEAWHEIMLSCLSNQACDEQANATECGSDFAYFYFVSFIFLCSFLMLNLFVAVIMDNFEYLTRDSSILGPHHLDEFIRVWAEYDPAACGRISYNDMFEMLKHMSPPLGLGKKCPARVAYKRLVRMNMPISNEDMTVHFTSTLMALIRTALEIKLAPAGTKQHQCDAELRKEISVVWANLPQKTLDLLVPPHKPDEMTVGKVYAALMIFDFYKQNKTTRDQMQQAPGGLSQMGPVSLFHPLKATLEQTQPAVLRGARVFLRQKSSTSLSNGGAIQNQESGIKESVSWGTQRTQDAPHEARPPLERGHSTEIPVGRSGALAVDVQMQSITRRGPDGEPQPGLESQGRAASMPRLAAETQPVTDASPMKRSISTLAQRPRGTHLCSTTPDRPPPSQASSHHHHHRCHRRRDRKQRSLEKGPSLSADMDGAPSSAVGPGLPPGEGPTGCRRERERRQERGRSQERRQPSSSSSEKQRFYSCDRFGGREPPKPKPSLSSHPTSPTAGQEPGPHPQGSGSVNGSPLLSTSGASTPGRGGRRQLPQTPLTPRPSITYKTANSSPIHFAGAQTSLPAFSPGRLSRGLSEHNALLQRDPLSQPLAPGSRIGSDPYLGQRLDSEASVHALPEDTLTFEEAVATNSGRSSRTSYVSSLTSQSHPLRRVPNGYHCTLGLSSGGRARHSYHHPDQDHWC
T1 sequence (P54289 25-956 partner limits assumed): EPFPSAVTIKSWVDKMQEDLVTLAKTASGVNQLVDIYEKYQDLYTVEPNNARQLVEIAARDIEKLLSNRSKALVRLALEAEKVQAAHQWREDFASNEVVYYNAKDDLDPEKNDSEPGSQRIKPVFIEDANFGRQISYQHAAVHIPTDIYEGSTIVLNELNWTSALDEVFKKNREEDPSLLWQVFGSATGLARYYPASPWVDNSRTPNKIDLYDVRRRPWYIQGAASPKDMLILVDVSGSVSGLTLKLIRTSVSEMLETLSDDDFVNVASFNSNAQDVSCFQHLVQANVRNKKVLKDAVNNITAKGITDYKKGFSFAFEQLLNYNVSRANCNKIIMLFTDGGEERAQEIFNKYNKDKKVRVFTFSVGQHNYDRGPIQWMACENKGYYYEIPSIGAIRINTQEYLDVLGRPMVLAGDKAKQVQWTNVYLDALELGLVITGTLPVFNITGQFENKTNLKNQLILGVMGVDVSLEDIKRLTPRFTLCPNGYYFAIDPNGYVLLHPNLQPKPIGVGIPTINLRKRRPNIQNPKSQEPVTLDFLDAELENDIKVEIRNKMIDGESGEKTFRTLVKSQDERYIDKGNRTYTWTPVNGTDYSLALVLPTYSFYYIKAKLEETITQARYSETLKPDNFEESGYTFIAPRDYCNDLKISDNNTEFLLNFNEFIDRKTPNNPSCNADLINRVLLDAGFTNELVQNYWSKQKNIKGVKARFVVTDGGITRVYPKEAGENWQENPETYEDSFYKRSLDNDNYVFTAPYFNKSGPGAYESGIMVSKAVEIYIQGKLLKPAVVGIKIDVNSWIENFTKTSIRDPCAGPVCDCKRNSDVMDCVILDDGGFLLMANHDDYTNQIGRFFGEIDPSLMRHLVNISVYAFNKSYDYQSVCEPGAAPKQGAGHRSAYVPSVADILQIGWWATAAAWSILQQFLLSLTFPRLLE
T1 sequence (P54289 957-1103 partner limits assumed): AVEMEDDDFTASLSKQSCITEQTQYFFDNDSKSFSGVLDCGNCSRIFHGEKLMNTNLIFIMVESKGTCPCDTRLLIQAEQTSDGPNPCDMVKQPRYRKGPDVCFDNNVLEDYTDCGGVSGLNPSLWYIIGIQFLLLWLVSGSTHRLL
T1 sequence (P54284 whole entry partner): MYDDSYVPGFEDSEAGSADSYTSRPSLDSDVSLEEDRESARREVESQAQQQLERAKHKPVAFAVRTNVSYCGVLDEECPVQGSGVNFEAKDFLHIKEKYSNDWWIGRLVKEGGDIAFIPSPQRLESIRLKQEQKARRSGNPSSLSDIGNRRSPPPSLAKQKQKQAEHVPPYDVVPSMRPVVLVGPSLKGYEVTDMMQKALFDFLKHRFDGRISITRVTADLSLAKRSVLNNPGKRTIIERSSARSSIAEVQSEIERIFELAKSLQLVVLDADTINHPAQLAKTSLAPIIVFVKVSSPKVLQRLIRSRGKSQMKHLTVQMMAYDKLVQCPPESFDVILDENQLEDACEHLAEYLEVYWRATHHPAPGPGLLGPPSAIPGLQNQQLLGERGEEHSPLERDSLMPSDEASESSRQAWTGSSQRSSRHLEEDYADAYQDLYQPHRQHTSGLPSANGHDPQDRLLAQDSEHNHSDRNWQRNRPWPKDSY

For the molecule `CC(C)(C)OC(=O)[C@@H](Cc1ccc(OCc2ccccc2)cc1)NC(=O)[C@H](Cc1c[nH]c2ccccc12)NC(=O)N1CCCCCC1` [Example 17, 2(R)-[2(S)-[(Azepane-1-carbonyl)-amino]-3-(1H-indol-3-yl)-propionylamino]-3-(4-benzyloxy-phenyl)-propionic acid tert-butyl ester], the half-inhibitory concentration (IC50) in data set [1] stood at 5.8 µM. Further, in data set [2], the inhibition at 1 µM was 41%, the inhibition at 10 µM amounted to 85% and the IC50 is 1.85 µM.
The like results for `CC(C)(C)OC(=O)[C@@H](Cc1ccc(OCc2ccccc2)cc1)NC(=O)[C@H](Cc1ccccc1)NC(=O)N1CCCCCC1` [Example 18, 2(R)-{2(S)-[(Azepane-1-carbonyl)-amino]-3-phenyl-propionylamino}-3-(4-benzyloxy-phenyl)-propionic acid tert-butyl ester] were, in that order, 3.5 µM, 50%, 97% and 0.93 µM.
Turning to `Cc1ccc(COc2ccc(C[C@H](NC(=O)[C@H](Cc3ccccc3)NC(=O)N3CCCCCC3)C(=O)OC(C)(C)C)cc2)cc1` [Example 19, [S-(R*,R*)]-2-{2-[(Azepane-1-carbonyl)-amino]-3-phenyl-propionylamino}-3-[4-(4-methyl-benzyloxy)-phenyl]-propionic acid tert-butyl ester], the melting point lay within 87 to 90 °C. In data set [1], the IC50 turned out to be 4.3 µM. In data set [2], the inhibition at 1 µM stood at 68%, the inhibition at 10 µM was found to be 91% and the IC50 came to 0.5 µM.
Take `CC(C)(C)OC(=O)[C@H](Cc1ccc(OCc2ccccc2)cc1)NC(=O)[C@H](Cc1c[nH]c2ccccc12)NC(=O)N1CCCCCC1` [Example 20, [S-(R*,R*)]-2-[2-[(Azepane-1-carbonyl)-amino]-3-(1H-indol-3-yl)-propionylamino]-3-(4-benzyloxy-phenyl)-propionic acid tert-butyl ester]: the half-maximal inhibitory concentration (IC50) in data set [1] came out at 4.6 µM. In addition, in data set [2], the inhibition at 1 µM came to 52%, the inhibition at 10 µM amounted to 90% and the IC50 amounted to 0.91 µM.
For the molecule `CC(C)C[C@H](NC(=O)N1CCCCCC1)C(=O)N[C@@H](Cc1ccc(OCc2ccccc2)cc1)C(=O)NC(C)(C)C` [Example 23, [S-(R*,R*)]-Azepane-1-carboxylic acid {1-[2-(4-benzyloxy-phenyl)-1-tert-butylcarbamoyl-ethylcarbamoyl]-3-methyl-butyl}-amide], the inhibition at 10 µM in data set [3] (10 μM) was determined as 78%; in data set [2], 95%. In addition, the figures for the IC50 in data set [3] (read-out: Inhibition of N-type Ca2+ Current IC50), in data set [1] and in data set [2] were 3.24 µM, 18 µM and 0.58 µM, respectively. Besides, the “Inhibition of K+ Current, % Inhibition at 10 μM” value in data set [4] amounted to 61%. Besides, the “Inhibition of Na+ Current, % Inhibition at 10 μM” value in data set [5] came to 30%. In data set [2], the inhibition at 1 µM was 55%.
